In publication PMC6804006, “Synthesis, Biological Activities and Docking Studies of Novel 4-(Arylaminomethyl)benzamide Derivatives as Potential Tyrosine Kinase Inhibitors” (Molecules, 2019):

Legend:
[1] = system: K-562 (chronic myelogenous leukemia); assay: MTT anti-proliferative assay, K-562; type: cell-based; conditions: Homo sapiens, K562, 48 h, 50% growth inhibition
Procedure: (§1) Each in vitro experiment was performed at least in triplicate, and the standard deviation of absorbance was less than 10% of the mean. For the in vitro assays, a stock solution (1% DMSO in the appropriate buffer with the tested compound diluted under sonication) was prepared from which several dilutions were made with the appropriate buffer.
(§2) Human cell lines were obtained from the Institute of Cytology, Russian Academy of Sciences. […] Cellular sensitivities to clofarabine and its lipid derivatives were measured with the MTT assay. Cells were plated in triplicate in 96-well plates (10^5 cells/well for suspended cell cultures and 5 × 10^3 cells/well for monolayer cultures); on the same day (suspended cell cultures) or on the following day (monolayer cultures), compounds were added at the appropriate dilutions. Plates were incubated under standard conditions for 48 h. Thereafter, 10 μL of MTT (Sigma) in phosphate-buffered saline (5 mg/mL) was added. The plates were incubated for an additional 4 h, and 150 μL of dimethyl sulfoxide (DMSO) was added to dissolve the formazan crystals. The optical density was read on a HALO MPR-95 Microplate Reader (Dynamica Scientific Ltd., Australia) at 570 nm. The antiproliferative effects were determined as degrees of inhibition of tumor cells (%).

[2] = system: HL-60 (promyelocytic leukemia); assay: MTT anti-proliferative assay, HL-60; type: cell-based, human; conditions: 50% growth inhibition
Procedure: as §1, §2

[3] = system: MCF-7 (breast adenocarcinoma); assay: MTT anti-proliferative assay, MCF-7; type: cell-based; conditions: Homo sapiens, MCF7, 48 h, 50% growth inhibition
Procedure: as §1, §2

HeLa (cervix carcinoma) = assay: MTT anti-proliferative assay, HeLa; type: cell-based; conditions: Homo sapiens, 48 h, 50% growth inhibition
Procedure: as §1, §2

A549 (lung carcinoma) = assay: MTT anti-proliferative assay, A-549; type: cell-based; conditions: Homo sapiens, 48 h, 50% growth inhibition
Procedure: as §1, §2

[4] = system: OKP-GS (carcinoma of the kidney); assay: MTT anti-proliferative assay, OKP-GS; type: cell-based; conditions: Homo sapiens, 48 h, 50% growth inhibition
Procedure: as §1, §2

[5] = system: RPMI 1788 (B lymphocyte, human normal cells); assay: MTT assay on normal cells RPMI 1788; type: cell-based; conditions: MTT 48 h
Procedure: as §1
Human cell lines were obtained from the Institute of Cytology, Russian Academy of Sciences. The cell lines studied were maintained in RPMI 1640 medium (AppliChem, Darmstadt, Germany) supplemented with 20% (HL-60, RPMI 1788) fetal calf serum (HyClone, Cramlington, UK), in DMEM (A 549) and Eagle’s MEM (AppliChem) (MCF7, HeLa) with 10% fetal calf serum (HyClone). Cells were cultivated at 37 °C in a humidified atmosphere of 5% CO2. Cellular sensitivities to clofarabine and its lipid derivatives were measured with the MTT assay. Cells were plated in triplicate in 96-well plates (10^5 cells/well for suspended cell cultures and 5 × 10^3 cells/well for monolayer cultures); on the same day (suspended cell cultures) or on the following day (monolayer cultures), compounds were added at the appropriate dilutions. Plates were incubated under standard conditions for 48 h. Thereafter, 10 μL of MTT (Sigma) in phosphate-buffered saline (5 mg/mL) was added. The plates were incubated for an additional 4 h, and 150 μL of dimethyl sulfoxide (DMSO) was added to dissolve the formazan crystals. The optical density was read on a HALO MPR-95 Microplate Reader (Dynamica Scientific Ltd., Australia) at 570 nm. The antiproliferative effects were determined as degrees of inhibition of tumor cells (%).

EGFR = target: T1, EGFR (Homo sapiens, UniProt P00533); assay: ADP-Glo kinase inhibitory assay, EGFR; type: biochemical; conditions: read-out: % Inhibition at 10 nM, EGFR
T1 construct: purchased Promega
Procedure: (§3) We investigated the kinase selectivity of targeted compounds against eight receptor tyrosine kinases including EGFR (epidermal growth factor receptor), HER-2 and HER4 (human epidermal growth factor receptor), IGF1R (insulin like growth factor 1 receptor), InsR (gene insulin receptor), KDR (kinase insert domain receptor), and PDGFRa and PDGFRb (platelet-derived growth factor receptors). The assay was performed using the Kinase-Glo Plus luminescence kinase assay kit (TK-1+ADP-Glo™, Promega, San Diego, CA, USA). It measures kinase activity by quantitating the amount of ATP remaining in solution following a kinase reaction.
(§4) The assay was performed using a Kinase Selectivity Profiling System (TK-1+ADP-Glo™ Assay and TK-2+ADP-Glo™ Assay, Promega), where the kinase activity was measured by quantifying the amount of ADP produced during a kinase reaction. The assay is performed in two steps; firstly, after the kinase reaction, an equal volume of ADP-Glo™ Reagent is added to terminate the kinase reaction and deplete the remaining ATP. Secondly, the Kinase Detection Reagent is added to simultaneously convert ADP to ATP and allow the newly synthesized ATP to be measured using a luciferase/luciferin reaction. The luminescent signal generated is proportional to the ADP concentration produced and is correlated with kinase activity. Our compounds were diluted with kinase buffer (5% DMSO), and 1 μL of the dilution was added to a 5-μL reaction so that the final concentration of DMSO was 1% in all of reactions. All of the enzymatic reactions were conducted at 23 °C for 60 min. The 5-μL reaction mixture contained 1µL of the compound solution, 2µL of the enzyme solution, and 2 µL of kinase substrate. After the enzymatic reaction, 5 µL of ADP-Glo™ Reagent (Promega, USA) was added to each reaction, and the plate was incubated for 40 min at 23 °C. Then, 10 µL of Kinase Detection Reagent (Promega, USA) was added to each reaction, and the plate was incubated for 30 min at 23 °C. Luminescence signal was measured using an Infinite M 200 plate reader (Tecan, Switzerland).
(§5) Kinase activity assays were performed in duplicate at each concentration. The luminescence data were analyzed using the computer software, Magellan™. The difference between luminescence intensities in the absence of Kinase (Lut) and in the presence of Kinase (Luc) was defined as 100% activity (Lut − Luc).

HER-2 = target: T2, HER-2 (Homo sapiens, UniProt P04626); assay: ADP-Glo kinase inhibitory assay, HER-2; type: biochemical; conditions: read-out: % Inhibition at 10 nM, HER-2
T2 construct: purchased Promega
Procedure: as §3, §4, §5

HER-4 = target: T3, HER-4 (Homo sapiens, UniProt Q15303); assay: ADP-Glo kinase inhibitory assay, HER-4; type: biochemical; conditions: for inhibitory activity in relation to HER-4, in words: 10 nM, compared with imatinib; for inhibition at 0.01 µM: read-out: % Inhibition at 10 nM, HER-4
T3 construct: purchased Promega
Procedure: as §3, §4, §5

IGF1R = target: T4, IGF1R (Homo sapiens, UniProt P08069); assay: ADP-Glo kinase inhibitory assay, IGF1R; type: biochemical; conditions: read-out: % Inhibition at 10 nM, IGF1R
T4 construct: purchased Promega
Procedure: as §3, §4, §5

InsR = target: T5, InsR (Homo sapiens, UniProt P06213); assay: ADP-Glo kinase inhibitory assay, InsR; type: biochemical; conditions: for inhibition at 0.01 µM: read-out: % Inhibition at 10 nM, InsR; for selectivity for the gene insulin receptor, in words: 10 nM, panel of eight receptor tyrosine kinases
T5 construct: purchased Promega
Procedure: as §3, §4, §5

KDR (VEGFR2) = target: T6, KDR (VEGFR2) (Homo sapiens, UniProt P35968); assay: ADP-Glo kinase inhibitory assay, KDR; type: biochemical; conditions: 10 nM
T6 construct: purchased Promega
Procedure: as §3
Vascular endothelial growth factor receptor 2 (VEGFR2), also called kinase insert domain receptor (KDR), is a tyrosine kinase receptor for VEGFs that plays a central role in tumor angiogenesis; therefore, the inhibition of VEGFR2 is a promising therapeutic strategy for inhibiting angiogenesis and tumor growth.
as §4, §5

PDGFRa = target: T7, PDGFRa (Homo sapiens, UniProt P16234); assay: ADP-Glo kinase inhibitory assay, PDGFRa; type: biochemical; conditions: read-out: % Inhibition at 10 nM, PDGFRa
T7 construct: purchased Promega
Procedure: as §3, §4, §5

PDGFRb = target: T8, PDGFRb (Homo sapiens, UniProt P09619); assay: ADP-Glo kinase inhibitory assay, PDGFRb; type: biochemical; conditions: read-out: % Inhibition at 10 nM, PDGFRb
T8 construct: purchased Promega
Procedure: as §3, §4, §5

T6 sequence (P35968 20-1356): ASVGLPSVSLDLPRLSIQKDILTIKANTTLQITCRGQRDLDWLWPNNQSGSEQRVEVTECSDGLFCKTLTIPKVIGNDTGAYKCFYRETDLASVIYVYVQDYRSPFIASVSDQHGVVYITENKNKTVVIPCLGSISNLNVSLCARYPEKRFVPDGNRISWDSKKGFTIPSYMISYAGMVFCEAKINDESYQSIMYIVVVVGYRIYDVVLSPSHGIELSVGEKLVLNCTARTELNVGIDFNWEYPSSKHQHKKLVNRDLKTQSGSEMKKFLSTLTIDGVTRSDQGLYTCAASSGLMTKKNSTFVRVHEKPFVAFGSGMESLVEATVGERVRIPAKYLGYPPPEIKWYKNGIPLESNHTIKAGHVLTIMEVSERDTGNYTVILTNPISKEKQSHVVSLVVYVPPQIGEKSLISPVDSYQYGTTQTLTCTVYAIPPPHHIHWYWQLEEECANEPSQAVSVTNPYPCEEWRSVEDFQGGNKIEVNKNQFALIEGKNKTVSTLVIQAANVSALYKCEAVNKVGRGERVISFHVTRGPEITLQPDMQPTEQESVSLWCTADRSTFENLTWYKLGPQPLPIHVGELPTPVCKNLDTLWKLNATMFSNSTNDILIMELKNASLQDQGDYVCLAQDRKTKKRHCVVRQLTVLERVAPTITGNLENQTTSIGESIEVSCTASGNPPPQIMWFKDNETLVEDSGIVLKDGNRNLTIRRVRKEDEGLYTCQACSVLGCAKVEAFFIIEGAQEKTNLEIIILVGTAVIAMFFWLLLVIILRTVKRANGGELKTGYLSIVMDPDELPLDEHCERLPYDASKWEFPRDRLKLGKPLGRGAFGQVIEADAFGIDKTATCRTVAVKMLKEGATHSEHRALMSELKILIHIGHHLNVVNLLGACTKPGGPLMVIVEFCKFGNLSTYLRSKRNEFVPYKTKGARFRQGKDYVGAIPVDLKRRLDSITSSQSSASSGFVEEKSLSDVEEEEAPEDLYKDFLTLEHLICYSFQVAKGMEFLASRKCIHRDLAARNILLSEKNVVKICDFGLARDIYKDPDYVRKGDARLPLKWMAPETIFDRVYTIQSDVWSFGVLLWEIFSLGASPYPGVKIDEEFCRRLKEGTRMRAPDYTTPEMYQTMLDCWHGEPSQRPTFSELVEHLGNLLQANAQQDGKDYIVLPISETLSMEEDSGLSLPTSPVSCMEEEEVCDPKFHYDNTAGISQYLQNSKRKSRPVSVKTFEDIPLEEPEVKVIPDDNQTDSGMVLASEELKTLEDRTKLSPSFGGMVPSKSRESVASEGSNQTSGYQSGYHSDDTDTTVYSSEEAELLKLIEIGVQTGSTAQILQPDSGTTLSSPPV
T4 sequence (P08069 31-1367): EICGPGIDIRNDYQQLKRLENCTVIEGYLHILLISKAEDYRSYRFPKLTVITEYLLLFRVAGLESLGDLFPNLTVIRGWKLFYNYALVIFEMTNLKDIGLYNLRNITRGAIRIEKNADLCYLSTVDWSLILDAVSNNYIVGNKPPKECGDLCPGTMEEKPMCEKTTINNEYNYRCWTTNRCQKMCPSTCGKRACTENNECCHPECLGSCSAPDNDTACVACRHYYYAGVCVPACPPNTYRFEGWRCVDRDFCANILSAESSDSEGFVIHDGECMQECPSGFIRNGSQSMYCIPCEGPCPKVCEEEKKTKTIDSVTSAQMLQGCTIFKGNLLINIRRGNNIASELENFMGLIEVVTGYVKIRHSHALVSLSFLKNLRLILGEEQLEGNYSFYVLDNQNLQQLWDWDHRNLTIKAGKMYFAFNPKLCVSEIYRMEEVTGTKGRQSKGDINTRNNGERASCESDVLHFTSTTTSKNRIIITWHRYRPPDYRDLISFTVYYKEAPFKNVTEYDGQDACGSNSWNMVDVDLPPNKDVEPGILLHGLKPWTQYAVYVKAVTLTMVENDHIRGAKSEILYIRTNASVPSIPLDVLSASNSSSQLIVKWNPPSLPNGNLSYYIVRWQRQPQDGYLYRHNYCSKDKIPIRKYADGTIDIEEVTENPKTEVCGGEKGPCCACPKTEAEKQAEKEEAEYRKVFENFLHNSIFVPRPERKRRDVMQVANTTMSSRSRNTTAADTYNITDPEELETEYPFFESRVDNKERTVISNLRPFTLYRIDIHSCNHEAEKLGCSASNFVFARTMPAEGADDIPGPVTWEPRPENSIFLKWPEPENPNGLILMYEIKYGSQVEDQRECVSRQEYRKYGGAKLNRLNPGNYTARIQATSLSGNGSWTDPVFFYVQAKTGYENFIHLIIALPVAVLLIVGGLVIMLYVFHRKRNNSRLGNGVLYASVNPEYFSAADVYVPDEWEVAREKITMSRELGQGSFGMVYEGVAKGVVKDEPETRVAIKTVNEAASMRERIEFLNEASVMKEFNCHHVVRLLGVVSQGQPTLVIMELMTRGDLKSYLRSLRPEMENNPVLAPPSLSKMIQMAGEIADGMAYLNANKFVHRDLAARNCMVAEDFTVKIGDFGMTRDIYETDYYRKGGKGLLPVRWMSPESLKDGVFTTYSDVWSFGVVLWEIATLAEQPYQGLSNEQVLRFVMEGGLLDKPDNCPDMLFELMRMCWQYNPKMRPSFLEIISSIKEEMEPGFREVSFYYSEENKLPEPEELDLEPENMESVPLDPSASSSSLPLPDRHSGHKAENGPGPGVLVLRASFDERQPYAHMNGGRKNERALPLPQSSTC
T5 sequence (P06213 28-1382): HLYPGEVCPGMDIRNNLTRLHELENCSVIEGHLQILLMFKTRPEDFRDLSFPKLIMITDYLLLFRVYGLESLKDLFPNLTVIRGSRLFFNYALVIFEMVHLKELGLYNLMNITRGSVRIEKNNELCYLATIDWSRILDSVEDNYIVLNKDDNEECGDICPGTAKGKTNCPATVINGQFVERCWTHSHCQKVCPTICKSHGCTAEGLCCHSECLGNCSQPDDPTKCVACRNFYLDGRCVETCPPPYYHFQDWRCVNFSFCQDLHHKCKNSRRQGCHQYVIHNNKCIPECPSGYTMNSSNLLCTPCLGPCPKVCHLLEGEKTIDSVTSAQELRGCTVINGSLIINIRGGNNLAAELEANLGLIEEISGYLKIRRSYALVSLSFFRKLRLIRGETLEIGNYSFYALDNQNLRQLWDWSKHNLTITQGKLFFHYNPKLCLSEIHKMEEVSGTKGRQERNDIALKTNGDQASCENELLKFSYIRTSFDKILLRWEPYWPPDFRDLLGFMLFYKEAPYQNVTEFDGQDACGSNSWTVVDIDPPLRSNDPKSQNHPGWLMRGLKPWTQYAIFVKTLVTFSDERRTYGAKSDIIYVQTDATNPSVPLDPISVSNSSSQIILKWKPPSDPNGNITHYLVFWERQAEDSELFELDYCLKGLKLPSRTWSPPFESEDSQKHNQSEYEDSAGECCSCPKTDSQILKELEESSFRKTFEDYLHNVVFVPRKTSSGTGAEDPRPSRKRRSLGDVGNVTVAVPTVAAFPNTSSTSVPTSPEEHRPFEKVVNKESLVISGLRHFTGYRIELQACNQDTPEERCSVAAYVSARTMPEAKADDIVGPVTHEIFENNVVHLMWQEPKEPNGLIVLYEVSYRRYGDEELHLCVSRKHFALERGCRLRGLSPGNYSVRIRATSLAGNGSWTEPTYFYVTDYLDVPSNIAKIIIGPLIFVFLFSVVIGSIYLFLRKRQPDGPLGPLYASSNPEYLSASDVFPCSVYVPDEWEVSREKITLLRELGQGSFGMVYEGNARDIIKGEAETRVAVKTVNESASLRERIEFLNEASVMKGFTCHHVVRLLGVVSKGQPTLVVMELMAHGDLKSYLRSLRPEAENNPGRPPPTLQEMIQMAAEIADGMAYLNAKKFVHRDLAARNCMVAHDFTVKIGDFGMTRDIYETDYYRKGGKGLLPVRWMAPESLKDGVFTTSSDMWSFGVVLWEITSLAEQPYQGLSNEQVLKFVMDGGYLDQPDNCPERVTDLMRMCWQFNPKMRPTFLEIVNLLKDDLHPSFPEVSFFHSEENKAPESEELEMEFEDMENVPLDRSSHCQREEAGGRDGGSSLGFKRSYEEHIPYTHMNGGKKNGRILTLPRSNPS
T7 sequence (P16234 24-1089): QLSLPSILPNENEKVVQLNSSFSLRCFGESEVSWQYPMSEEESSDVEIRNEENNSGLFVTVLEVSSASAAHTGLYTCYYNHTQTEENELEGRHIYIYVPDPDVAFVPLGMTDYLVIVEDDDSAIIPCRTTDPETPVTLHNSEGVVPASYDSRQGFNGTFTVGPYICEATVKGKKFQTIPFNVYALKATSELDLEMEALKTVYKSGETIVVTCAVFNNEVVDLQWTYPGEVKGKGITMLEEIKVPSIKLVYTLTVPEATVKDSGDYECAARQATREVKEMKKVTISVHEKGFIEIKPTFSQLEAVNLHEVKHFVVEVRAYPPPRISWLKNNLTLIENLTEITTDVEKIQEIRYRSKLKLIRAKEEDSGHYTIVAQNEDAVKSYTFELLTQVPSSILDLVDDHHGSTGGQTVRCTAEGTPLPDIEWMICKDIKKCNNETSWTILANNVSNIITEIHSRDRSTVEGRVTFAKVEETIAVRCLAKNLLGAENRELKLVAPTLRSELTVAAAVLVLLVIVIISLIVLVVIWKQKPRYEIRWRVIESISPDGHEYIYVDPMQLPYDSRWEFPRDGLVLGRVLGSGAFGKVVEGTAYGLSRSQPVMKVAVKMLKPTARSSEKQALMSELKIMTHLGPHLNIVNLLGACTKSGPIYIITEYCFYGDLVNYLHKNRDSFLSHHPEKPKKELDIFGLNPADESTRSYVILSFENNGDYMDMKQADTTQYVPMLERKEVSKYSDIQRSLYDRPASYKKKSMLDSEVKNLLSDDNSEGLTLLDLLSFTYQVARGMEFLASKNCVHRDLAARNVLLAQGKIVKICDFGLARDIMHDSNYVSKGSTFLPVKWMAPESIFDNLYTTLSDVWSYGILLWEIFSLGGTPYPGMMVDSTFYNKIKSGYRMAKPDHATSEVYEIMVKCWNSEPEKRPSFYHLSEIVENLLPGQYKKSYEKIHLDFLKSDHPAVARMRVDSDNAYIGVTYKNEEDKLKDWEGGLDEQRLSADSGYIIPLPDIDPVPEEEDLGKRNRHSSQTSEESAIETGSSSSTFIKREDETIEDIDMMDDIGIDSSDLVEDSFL

| SMILES | IC50 [1] [µM] | IC50 ([2]; Homo sapiens, HL-60, 48 h) [µM] | IC50 [3] [µM] | IC50 (HeLa (cervix carcinoma)) [µM] | IC50 (A549 (lung carcinoma)) [µM] | IC50 [4] [µM] | inhibition at 0.01 µM (EGFR) [%] | inhibition at 0.01 µM (HER-2) [%] | inhibitory activity in relation to HER-4, in words (HER-4) | inhibition at 0.01 µM (HER-4) [%] | inhibition at 0.01 µM (IGF1R) [%] | inhibition at 0.01 µM (InsR) [%] | inhibition at 0.01 µM (KDR (VEGFR2)) [%] | inhibition at 0.01 µM (PDGFRa) [%] | inhibition at 0.01 µM (PDGFRb) [%] | melting point [°C] | IC50 ([2]; 48 h) [µM] | selectivity for the gene insulin receptor, in words (InsR) | inhibition at 100 µM [5] [%] |
| --- | --- | --- | --- | --- | --- | --- | --- | --- | --- | --- | --- | --- | --- | --- | --- | --- | --- | --- | --- |
| CNC(=O)c1cc(Oc2ccc(NCc3ccc(C(=O)Nc4cc(-n5cnc(C)c5)cc(C(F)(F)F)c4)cc3)cc2)ccn1 [Compound 10, N-methyl-4-(4-((4-((3-(4-methyl-1H-imidazol-1-yl)-5-(trifluoromethyl)phenyl)carbamoyl)benzyl)amino)phenoxy)picolinamide] | 40 | 8.2 | > 100 | > 100 | > 100 | 81 | 65 | 0 | comparable to imatinib | 51 | 0 | 46 | 27 | 66 | 0 | 153 to 156 |  |  | 10.4 |
| Cc1cn(-c2cc(NC(=O)c3ccc(CNc4cccc(C(F)(F)F)c4)cc3)cc(C(F)(F)F)c2)cn1 [Compound 11, N-(3-(4-methyl-1H-imidazol-1-yl)-5-(trifluoromethyl)phenyl)-4-(((3-(trifluoromethyl)phenyl)amino)methyl)benzamide] | 53 | 51 | 57 | 54 | 61 | 54.3 | 91 | 0 | comparable to imatinib | 49 | 0 | 0 | 16 | 55 | 0 | 83 to 85 |  |  | 15.5 |
| Cc1cn(-c2cc(NCc3ccc(C(=O)Nc4cc([N+](=O)[O-])ccc4C)cc3)cc(C(F)(F)F)c2)cn1 [Compound 15, 4-({[3-(4-Methyl-1H-imidazol-1-yl)-5-(trifluoromethyl)phenyl]amino}methyl)-N-{[(2-methyl-5-nitrophenyl) benzoate] | 31 | 5.6 | > 100 | 78.5 | 73 | > 100 | 0 | 0 |  | 0 | 0 | 43 | 0 | 0 | 0 | 205 to 208 | 5.8 | high selectivity | 15.9 |

The next lines start with results.

| IC50 [1] [µM] | IC50 ([2]; Homo sapiens, HL-60, 48 h) [µM] | IC50 [3] [µM] | IC50 (HeLa (cervix carcinoma)) [µM] | IC50 (A549 (lung carcinoma)) [µM] | IC50 [4] [µM] | inhibition at 0.01 µM (EGFR) [%] | inhibition at 0.01 µM (HER-2) [%] | inhibitory activity in relation to HER-4, in words (HER-4) | inhibition at 0.01 µM (HER-4) [%] | inhibition at 0.01 µM (IGF1R) [%] | inhibition at 0.01 µM (InsR) [%] | inhibition at 0.01 µM (KDR (VEGFR2)) [%] | inhibition at 0.01 µM (PDGFRa) [%] | inhibition at 0.01 µM (PDGFRb) [%] | melting point [°C] | IC50 ([2]; 48 h) [µM] | selectivity for the gene insulin receptor, in words (InsR) | SMILES | inhibition at 100 µM [5] [%] |
| --- | --- | --- | --- | --- | --- | --- | --- | --- | --- | --- | --- | --- | --- | --- | --- | --- | --- | --- | --- |
| 5.6 | 46 | 69 | 57.5 | 55 | 52 | 92 | 34 | comparable to imatinib | 54 | 0 | 0 | 20 | 59 | 8 | 129 to 131 |  |  | Cc1cn(-c2cc(NCc3ccc(C(=O)Nc4cccc(C(F)(F)F)c4)cc3)cc(C(F)(F)F)c2)cn1 [Compound 13, 4-({[3-(4-Methyl-1H-imidazol-1-yl)-5-(trifluoromethyl)phenyl]amino}methyl)-N-[3-(trifluoromethyl)phenyl]benzamide] | 9.36 |
| 30.7 | 38 | 63 | 11.5 | > 100 | 78 | 0 | 0 |  | 0 | 3 | 52 | 0 | 0 | 0 | 98 to 102 |  | high selectivity | COc1ccc(C(=O)N2CCN(Cc3ccc(C(=O)Nc4cc(-n5cnc(C)c5)cc(C(F)(F)F)c4)cc3)CC2)cc1 [Compound 28i, 4-{[4-(4-Methoxybenzoyl)piperazin-1-yl]methyl}-N-[3-(4-methyl-1H-imidazol-1-yl)-5-(trifluoromethyl)phenyl]benzamide] | 6.32 |
